Laboratory results taken from US6699884B2, “Fluoro-substituted benzenesulfonyl compounds for the treatment of inflammation” (Pharmacia Corporation, priority 2001, dated 2004).

Columns and labels:
Human COX-2 = molecular target: T1, Human COX-2 (Homo sapiens, UniProt P35354); assay: Fast assay for COX-2 activity (PGE2 formed, ELISA); type: biochemical; settings: recombinant enzyme in CHAPS-solubilized insect cell membranes; 10 min pre-incubation at 25° C.; 10 μM arachidonic acid
T1 construct: A 2.0 kb fragment containing the coding region of either human or murine COX-1 or human or murine COX-2; made in house; host or cells: SF9 insect cells (baculovirus, pVL1393)
T1 sequence (P35354 18-604): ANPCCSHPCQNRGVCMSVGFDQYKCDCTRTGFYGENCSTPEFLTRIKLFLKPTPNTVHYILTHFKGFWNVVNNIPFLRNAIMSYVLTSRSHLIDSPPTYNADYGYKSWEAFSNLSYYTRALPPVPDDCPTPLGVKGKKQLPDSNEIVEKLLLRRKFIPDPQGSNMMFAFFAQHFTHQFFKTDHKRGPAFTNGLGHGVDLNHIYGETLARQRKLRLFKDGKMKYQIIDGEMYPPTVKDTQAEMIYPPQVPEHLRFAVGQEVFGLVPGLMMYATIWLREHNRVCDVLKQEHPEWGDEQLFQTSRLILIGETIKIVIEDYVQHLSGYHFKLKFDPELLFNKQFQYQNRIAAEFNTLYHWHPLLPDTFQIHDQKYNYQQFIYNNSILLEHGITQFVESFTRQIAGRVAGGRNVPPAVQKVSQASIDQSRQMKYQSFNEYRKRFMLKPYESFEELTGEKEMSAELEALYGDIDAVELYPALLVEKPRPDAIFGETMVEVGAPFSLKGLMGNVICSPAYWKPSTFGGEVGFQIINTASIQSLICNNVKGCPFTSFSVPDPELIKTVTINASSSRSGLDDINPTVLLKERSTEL

Human COX-1 = molecular target: T2, Human COX-1 (Homo sapiens, UniProt P23219); assay: Fast assay for COX-1 activity (PGE2 formed, ELISA); type: biochemical; settings: recombinant enzyme in CHAPS-solubilized insect cell membranes; 10 min pre-incubation at 25° C.; 10 μM arachidonic acid
T2 construct: A 2.0 kb fragment containing the coding region of either human or murine COX-1 or human or murine COX-2; made in house; host or cells: SF9 insect cells (baculovirus, pVL1393)
T2 sequence (P23219 24-599): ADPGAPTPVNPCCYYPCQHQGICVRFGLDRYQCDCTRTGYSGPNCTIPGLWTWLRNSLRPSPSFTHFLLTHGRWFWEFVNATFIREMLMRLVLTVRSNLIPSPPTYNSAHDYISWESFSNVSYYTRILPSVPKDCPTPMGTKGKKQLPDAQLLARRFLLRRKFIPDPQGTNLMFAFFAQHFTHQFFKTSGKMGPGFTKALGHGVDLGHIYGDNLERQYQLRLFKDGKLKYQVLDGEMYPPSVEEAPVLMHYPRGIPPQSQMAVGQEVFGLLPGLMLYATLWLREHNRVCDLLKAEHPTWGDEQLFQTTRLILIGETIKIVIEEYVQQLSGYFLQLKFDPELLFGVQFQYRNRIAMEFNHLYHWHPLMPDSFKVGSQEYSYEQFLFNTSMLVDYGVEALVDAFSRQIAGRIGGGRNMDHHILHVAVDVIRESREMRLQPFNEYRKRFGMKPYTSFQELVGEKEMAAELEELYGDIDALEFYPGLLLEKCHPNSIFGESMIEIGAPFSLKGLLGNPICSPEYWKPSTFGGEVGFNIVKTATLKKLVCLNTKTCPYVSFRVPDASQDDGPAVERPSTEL
Experimental: Recombinant baculoviruses were isolated by transfecting 4 μg of baculovirus transfer vector DNA into SF9 insect cells (2×10^8) along with 200 ng of linearized baculovirus plasmid DNA by the calcium phosphate method. See M. D. Summers and G. E. Smith, A Manual of Methods for Baculovirus Vectors and Insect Cell Culture Procedures, Texas Agric. Exp. Station Bull. […] Recombinant viruses were purified by three rounds of plaque purification and high titer (10^7-10^8 pfu/mL) stocks of virus were prepared. For large scale production, SF9 insect cells were infected in 10 liter fermentors (0.5×10^6/mL) with the recombinant baculovirus stock such that the multiplicity of infection was 0.1. After 72 hours the cells were centrifuged and the cell pellet homogenized in Tris/Sucrose (50 mM: 25%, pH 8.0) containing 1% 3-[(3-cholamidopropyl)dimethylammonio]-1-propanesulfonate (CHAPS). The homogenate was centrifuged at 10,000×G for 30 minutes, and the resultant supernatant was stored at −80° C. before being assayed for COX activity.
COX activity was assayed as PGE2 formed/μg protein/time using an ELISA to detect the prostaglandin released. CHAPS-solubilized insect cell membranes containing the appropriate COX enzyme were incubated in a potassium phosphate buffer (50 mM, pH 8.0) containing epinephrine, phenol, and heme with the addition of arachidonic acid (10 μM). Compounds were pre-incubated with the enzyme for 10-20 minutes prior to the addition of arachidonic acid. Any reaction between the arachidonic acid and the enzyme was stopped after ten minutes at 37° C. room temperature by transferring 40 μl of reaction mix into 160 μl ELISA buffer and 25 μM indomethacin. The PGE2 formed was measured by standard ELISA technology (Cayman Chemical).
COX activity was assayed as PGE2 formed/μg protein/time using an ELISA to detect the prostaglandin released. […] Compounds were pre-incubated with the enzyme for 10 minutes at 25° C. prior to the addition of arachidonic acid. Any reaction between the arachidonic acid and the enzyme was stopped after two minutes at 37° C./room temperature by transferring 40 μl of reaction mix into 160 μl ELISA buffer and 25 μM indomethacin. The PGE2 formed was measured by standard ELISA technology (Cayman Chemical).

SMILES	IC50 (Human COX-2)	IC50 (Human COX-1)
CS(=O)(=O)c1c(F)cc(-c2cc(C(F)(F)F)nn2-c2ccc(F)cc2)cc1F [Example 1, 5-[3,5-difluoro-4-(methylsulfonyl)phenyl]-1-(4-fluorophenyl)-3-(trifluoromethyl)-1H-pyrazole]	3440 nM	> 100000 nM
Cc1ccc(-n2nc(C(F)F)cc2-c2cc(F)c(S(C)(=O)=O)c(F)c2)cc1Cl [Example 2, 1-(3-chloro-4-methylphenyl)-3-(difluoromethyl)-5-[3,5-difluoro-4-(methylsulfonyl)phenyl]-1H-pyrazole]	550 nM	> 100000 nM
CS(=O)(=O)c1c(F)cc(-c2cc(C(F)(F)F)nn2-c2cccc(C(F)(F)F)c2)cc1F [Example 3, 5-[3,5-difluoro-4-(methylsulfonyl)phenyl]-3-(trifluoromethyl)-1-[3-(trifluoromethyl)phenyl]-1H-pyrazole]	300 nM	> 100000 nM
CS(=O)(=O)c1c(F)cc(-c2cc(C(F)(F)F)nn2-c2ccc(OC(F)(F)F)cc2)cc1F [Example 4, 5-[3,5-difluoro-4-(methylsulfonyl)phenyl]-1-[4-(trifluoromethoxy)phenyl]-3-(trifluoromethyl)-1H-pyrazole]	100 nM	> 100000 nM
CS(=O)(=O)c1c(F)cc(-c2cc(C(F)F)nn2C2CCCCC2)cc1F [Example 5, 1-cyclohexyl-3-(difluoromethyl)-5-[3,5-difluoro-4-(methylsulfonyl)phenyl]-1H-pyrazole]	–	> 100000 nM

Continued, values first:

IC50 (Human COX-2)	IC50 (Human COX-1)	SMILES
90 nM	> 100000 nM	Cc1ccc(-n2nc(C(F)(F)F)cc2-c2cc(F)c(S(C)(=O)=O)c(F)c2)cc1Cl [Example 6, 1-(3-chloro-4-methylphenyl)-5-[3,5-difluoro-4-(methylsulfonyl)phenyl]-3-(trifluoromethyl)-1H-pyrazole]
90 nM	56700 nM	CS(=O)(=O)c1cc(F)c(-c2cc(C(F)(F)F)nn2-c2ccc(Cl)cc2)cc1F [Example 7, 1-(4-chlorophenyl)-5-[2,5-difluoro-4-(methylsulfonyl)-phenyl]-3-(trifluoromethyl)-1H-pyrazole]
250 nM	14800 nM	COc1ccc(-n2nc(C(F)(F)F)cc2-c2cc(F)c(S(C)(=O)=O)cc2F)cc1 [Example 8, 5-[2,5-difluoro-4-(methylsulfonyl)phenyl]-1-(4-methoxyphenyl)-3-(trifluoromethyl)-1H-pyrazole]
–	> 100000 nM	Cc1onc(-c2ccccc2)c1-c1cc(F)c(S(C)(=O)=O)c(F)c1 [Example 14, 4-[3,5-difluoro-4-(methylsulfonyl)phenyl]-5-methyl-3-phenylisoxazole]
120 nM	> 100000 nM	Cc1onc(-c2ccccc2)c1-c1cc(F)c(S(N)(=O)=O)c(F)c1 [Example 15, 2,6-difluoro-4-(5-methyl-3-phenylisoxazol-4-yl)benzene-sulfonamide]
